# Measured values: US20040077655A1, “Piperazine derivatives for treatment of bacterial infections” (priority 2000, published 2004)
# Assay: MIC of test compounds against various organisms
# Assay type: cell-based, S. aureus, S. pneumoniae, H. influenzae, E. faecalis
# Experimental: The MIC (μg/ml) of test compounds against various organisms was determined: S. aureus Oxford, S. aureus WCUH29, S. pneumoniae 1629, S. pneumoniae N1387, S. pneumoniae ERY 2, H. influenzae Q1, E. faecalis 7.
row,SMILES,MIC [µg/mL]
1,"COc1ccc2nccc(NC(=O)N3CCN(CC(=O)c4cnc5ccccc5n4)CC3)c2n1 [Example 10, 4-(2-Oxo-2-quinoxalin-2-yl-ethyl)-piperazine-1-carboxylic acid (6-methoxy-[1,5]naphthyridin-4-yl)-amide.]",≤ 2
2,"COc1ccc2nccc(NC(=O)N3CCN(CC(=O)c4ccc5c(c4)NC(=O)CO5)CC3)c2n1 [Example 12, 4-[2-Oxo-2-(3-oxo-3,4-dihydro-2H-benzo[1,4]oxazin-6-yl)-ethyl]piperazine-1-carboxylic acid (6-methoxy-[1,5]naphthyridin-4-yl)-amide.]",≤ 0.25
